Experimental data reported in patent publication US6419962B1, “External skin treatment composition” (Shiseido Company, Ltd., priority 1996, dated 2002).

Test: Moisture retention effect (coefficient of rate of moisture evaporation from weight change of sample)
Assay type: physicochemical
Conditions: 50 wt % aqueous solution
Protocol: The moisture retention effect of unicellularized carrot ([…]) was studied in comparison with water, glycerin ([…]), a methanol extract of carrot ([…]), and DPG (dipropylene glycol) ([…]).
That is, 50 μl each of the above samples was placed on a chemical balance placed in a room held to 22° C. and a dry humidity of 45%. The change in weight was measured every three minutes for seven times in total. From the results, the coefficient of the rate of moisture evaporation in the sample (coefficient k of rate of moisture evaporation found as dW/dt=kW where the amount of moisture is W and the elapsed time is t, that is, logW=kt+C (C is a constant)) was calculated. […]
Note that the method of study of this moisture retention effect was the same as the method used in the above Test Example A2. […]
Note that the method of study of the moisture retention effect was the same as the method performed in the above Test Example A2.
The moisture retention effect of unicellularized iris rhizome was studied in comparison with purified water, glycerol, and an ethanol extract of iris rhizome.
That is, with the exception of the purified water, a 50 wt % aqueous solution was prepared and the coefficient of the moisture evaporation rate was found in the same way as the study of the moisture retention effect of unicellularized carrot (Test Example A2). […]

Coefficient of moisture evaporation rate: −0.0230
Structure (SMILES): OCC(O)CO [Glycerol]
